Experimental data published in patent publication US20260055089A1, “NOVEL SUBSTITUTED BENZOTHIOPHENE-6-CARBOXYLIC ACID DERIVATIVES, PROCESSES FOR THEIR PREPARATION AND THERAPEUTIC USES THEREOF” (SANOFI, priority 2022, published 2026).

Biological target: T1, ERα (Homo sapiens, UniProt P03372)
T1 construct: host or cells: MCF7
T1 sequence (P03372 1-595): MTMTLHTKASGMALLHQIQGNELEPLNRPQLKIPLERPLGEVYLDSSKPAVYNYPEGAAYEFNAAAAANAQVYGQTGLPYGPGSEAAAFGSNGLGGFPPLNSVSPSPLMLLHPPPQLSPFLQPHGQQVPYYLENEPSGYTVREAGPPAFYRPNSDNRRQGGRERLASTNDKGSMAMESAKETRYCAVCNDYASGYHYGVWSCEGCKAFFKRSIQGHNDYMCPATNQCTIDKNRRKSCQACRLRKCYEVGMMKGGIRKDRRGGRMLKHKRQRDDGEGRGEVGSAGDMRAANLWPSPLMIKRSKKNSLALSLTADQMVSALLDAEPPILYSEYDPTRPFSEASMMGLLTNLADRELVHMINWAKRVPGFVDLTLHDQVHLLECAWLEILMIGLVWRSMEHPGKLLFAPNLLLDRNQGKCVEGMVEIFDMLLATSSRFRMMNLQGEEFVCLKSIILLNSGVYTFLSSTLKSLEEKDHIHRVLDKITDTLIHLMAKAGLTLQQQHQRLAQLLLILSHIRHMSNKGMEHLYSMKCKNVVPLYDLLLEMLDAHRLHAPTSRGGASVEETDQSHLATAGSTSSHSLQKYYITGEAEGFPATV
Assay: Estrogen receptor degradation activity: breast cancer cell ERα in cell western assay
Assay type: cell-based
Settings: MCF7 cells; for % Degradation At 0.3 μM: 4 hours, relative to fulvestrant 0.1 μM positive control; for DC50: 4 hours post compound addition, concentration which degrades 50% of the estrogen receptor, read-out: Degradation IC50
Experimental: Test: Estrogen Receptor Degradation Activity
Said test involves measuring the in vitro degradation activity of the compounds of the table 1.
The measurements of the degradation activities were made using a breast cancer cell ERα in cell western assay as described hereunder.
MCF7 cells (ATCC) were seeded in 384 wells microplate (collagen coated) at a concentration of 10000 cells/30 μL per well in red phenol free MEM alpha medium (invitrogen) containing 5% charcoal dextran striped FBS. The following day, 9 points serial 1:5 dilution of each compound was added to the cells in 2.5 μL at final concentrations ranging from 0.3-0.0000018 μM (in table 2), or 0.1 μM for fulvestrant (using as positive control). At 4 hours post compound addition the cells were fixed by adding 25 μL of formalin (final concentration 5% formalin containing 0.1% triton) for 10 minutes at RT and then washed twice with PBS. Then, 50 μL of LI-COR blocking buffer containing 0.1% Triton was added to plate for 30 minutes at RT. LI-COR blocking buffer was removed and cells were incubated overnight at cold room with 50 μL anti-ER rabbit monoclonal antibody (Thermo scientific MA1-39540) diluted at 1:1000 in LI-COR blocking buffer containing 0.1% tween-20. Wells which were treated with blocking buffer but no antibody were used as background control. Wells were washed twice with PBS (0.1% tween-20) and incubated at 37° C. for 60 minutes in LI-COR (0.1% tween-20) containing goat anti-rabbit antibody Alexa 488 (1:1000) and Syto-64 a DNA dye (2 μM final concentration). Cells were then washed 3 times in PBS and scanned in ACUMEN explorer (TTP-Labtech). Integrated intensities in the green fluorescence and red fluorescence were measured to determine the levels of ERα and DNA respectively.
The degradation activity with respect to estrogen receptors in this test is given by the concentration which degrades 50% of the estrogen receptor (or ICso) in nM.
The % of ERα levels decrease were determined as follows: % inhibition=100*(1−(sample−fulvestrant:DMSO−fulvestrant)).

% Degradation At 0.3 μM [%] | DC50 [nM] | SMILES
93 | 0.9 | CC(F)(F)c1cc(F)ccc1-c1sc2cc(C(=O)O)ccc2c1Oc1ccc(OC2CN(CCCF)C2)cc1 [Compound 2, 2-(2-(1,1-difluoroethyl)-4-fluorophenyl)-3-(4-((1-(3-fluoropropyl)azetidin-3-yl)oxy)phenoxy)benzo[b]thiophene-6-carboxylic acid]
92 | 2 | CC(F)(F)c1cc(F)ccc1-c1sc2cc(C(=O)O)ccc2c1Oc1ccc(NC2CN(CCCF)C2)cc1.Cl [Compound 1, 2-(2-(1,1-difluoroethyl)-4-fluorophenyl)-3-(4-((1-(3-fluoropropyl)azetidin-3-yl)amino)phenoxy)benzo[b]thiophene-6-carboxylic acid, hydrochloride]
85 | 5 | CC(F)(F)c1cc(F)ccc1-c1sc2cc(C(=O)O)ccc2c1Oc1ccc(O[C@H]2CCN(CCCF)C2)cc1 [Compound 3, (S)-2-(2-(1,1-difluoroethyl)-4-fluorophenyl)-3-(4-((1-(3-fluoropropyl)pyrrolidin-3-yl)oxy)phenoxy)benzo[b]thiophene-6-carboxylic acid]
